Experimental data as given in ChEMBL document CHEMBL1201862, “PubChem BioAssay data set” (2004).
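Where inhibition never reached the appropriate level, the endpoint shown equals the highest concentration tested. Otherwise, values were interpolated linearly from a five-concentration, 48-hour dose response in 96-well plates. GI50 = concentration required for 50% inhibition of growth.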 Calls of active or inactive are those of the source. Cut-off read from the data, not from the text of the source: active = GI50 up to about 1.1 µM and inactive = higher.

Tests used:
Assay in all cases: DTP human tumour cell line panel, 48 h
[1] = system: ACHN
[2] = system: CAKI-1
[3] = system: HCT-15
[4] = system: K562
[5] = system: LOX IMVI
[6] = system: MCF7
[7] = system: Malme-3M
[8] = system: NCI-H226
[9] = system: NCI-H23
[10] = system: OVCAR-3
[11] = system: OVCAR-4
[12] = system: OVCAR-5
[13] = system: RPMI-8226
[14] = system: RXF 393
[15] = system: SF-539
[16] = system: SNB-75
[17] = system: SW-620
[18] = system: U-251
[19] = system: UACC-62
[20] = system: UO-31

Compound	GI50 [1]	GI50 [2]	GI50 [3] [µM]	GI50 [4]	GI50 [5]	GI50 [6]	GI50 [7]	GI50 [8]	GI50 [9]	GI50 [10]	GI50 [11]	GI50 [12]	GI50 [13]	GI50 [14]	GI50 [15]	GI50 [16]	GI50 [17]	GI50 [18]	GI50 [19]	GI50 [20]
C=C(Cl)C(Cl)(CBr)CCC(Br)C(C)(C)Br (stereo not drawn)	2.62 µM (inactive)	2.47 µM (inactive)	3.03	4.73 µM (inactive)	15.3 µM (inactive)	1.5 µM (inactive)	14.3 µM (inactive)	20.1 µM (inactive)	14.2 µM (inactive)	2.93 µM (inactive)	16.3 µM (inactive)	12.7 µM (inactive)	0.426 µM (active)	1.8 µM (inactive)	1.99 µM (inactive)	2.12 µM (inactive)	3 µM (inactive)	1.77 µM (inactive)	9.93 µM (inactive)	8.17 µM (inactive)
c1ccc2cc3c(cc2c1)OP1(Oc2cccc4cccnc24)(O3)Oc2cc3ccccc3cc2O1	–	4.88 µM (inactive)	3.05	2.04 µM (inactive)	3.72 µM (inactive)	1.13 µM (inactive)	7.21 µM (inactive)	9.89 µM (inactive)	2.71 µM (inactive)	1.58 µM (inactive)	3.61 µM (inactive)	4.43 µM (inactive)	1.07 µM (active)	7.29 µM (inactive)	6.15 µM (inactive)	18.6 µM (inactive)	2.81 µM (inactive)	6.85 µM (inactive)	3.05 µM (inactive)	5.01 µM (inactive)
N#Cc1c(Cl)c2cccnc2n2c1nc1ccccc12	1.78 µM (inactive)	1.9 µM (inactive)	2.04	0.427 µM (active)	1.66 µM (inactive)	2.71 µM (inactive)	1.84 µM (inactive)	2.93 µM (inactive)	2.07 µM (inactive)	2.72 µM (inactive)	2.66 µM (inactive)	14.2 µM (inactive)	1.78 µM (inactive)	1.42 µM (inactive)	2.35 µM (inactive)	4.38 µM (inactive)	1.87 µM (inactive)	4.28 µM (inactive)	3.96 µM (inactive)	1.81 µM (inactive)
CCN(CC)CCCNc1nc(=O)[nH]c(C)c1C(=O)Nc1c2ccccc2nc2ccccc12	10.2 µM (inactive)	7.28 µM (inactive)	4.8	4.75 µM (inactive)	8.43 µM (inactive)	7.78 µM (inactive)	7.87 µM (inactive)	14.9 µM (inactive)	7.53 µM (inactive)	6.14 µM (inactive)	3.96 µM (inactive)	36.2 µM (inactive)	5.9 µM (inactive)	27 µM (inactive)	11.9 µM (inactive)	10.1 µM (inactive)	21.4 µM (inactive)	12.6 µM (inactive)	6.32 µM (inactive)	5.6 µM (inactive)
CC(=O)OC1=CC2(OC(C)=O)CC(C)(C)C1C1C(=O)C=CC(=O)C12 (stereo not drawn)	20.1 µM (inactive)	> 63.5 µM (inactive)	> 55.6	97.1 µM (inactive)	> 42.1 µM (inactive)	32.7 µM (inactive)	17.6 µM (inactive)	29.4 µM (inactive)	> 73.1 µM (inactive)	> 66.7 µM (inactive)	> 100 µM (inactive)	> 100 µM (inactive)	> 66.8 µM (inactive)	44.6 µM (inactive)	> 47.1 µM (inactive)	> 64.6 µM (inactive)	> 65 µM (inactive)	> 66.2 µM (inactive)	15.7 µM (inactive)	> 70 µM (inactive)
COc1ccc2cc(C(=O)CCC(=O)O)ccc2c1	> 100 µM (inactive)	> 100 µM (inactive)	> 100	> 100 µM (inactive)	> 100 µM (inactive)	> 100 µM (inactive)	> 100 µM (inactive)	> 100 µM (inactive)	> 100 µM (inactive)	> 100 µM (inactive)	> 100 µM (inactive)	> 100 µM (inactive)	> 100 µM (inactive)	> 100 µM (inactive)	> 100 µM (inactive)	50.1 µM (inactive)	> 100 µM (inactive)	> 100 µM (inactive)	> 100 µM (inactive)	> 100 µM (inactive)
O=C(Oc1cccc(Cl)c1)c1cc2cc(CCl)ccc2oc1=O	17.6 µM (inactive)	60.7 µM (inactive)	88.3	41.4 µM (inactive)	40.6 µM (inactive)	30.3 µM (inactive)	14 µM (inactive)	37.8 µM (inactive)	59 µM (inactive)	39.8 µM (inactive)	41.5 µM (inactive)	> 100 µM (inactive)	61.7 µM (inactive)	20.7 µM (inactive)	49.1 µM (inactive)	31.4 µM (inactive)	> 100 µM (inactive)	–	14.3 µM (inactive)	32.8 µM (inactive)
